Results on six compounds are retold here after patent US9169217B2, “Arylalkyl esters of 4-amino-6-(substituted phenyl)-picolinates and 6-amino-2-(substituted phenyl)-pyrimidinecarboxylates and their use as selective herbicides for crops” (Dow AgroSciences LLC, priority 2011, dated 2015).

Data set [1] relates to Cyperus iria L. (rice flatsedge). Nature of the data set: Postemergence foliar-applied herbicidal activity in direct seeded rice (Example 16). The format is in vivo. The settings on record: rice cropping systems, 8.75 g ae/ha, 21 DAA, may represent multiple trials. The method in brief:
(§1)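 Greenhouse plants at 2nd–3rd true leaf stage (10–17 d, ~29/26 °C, 14-h photoperiod) sprayed postemergence with ester forms in acetone–DMSO plus 1.25% crop oil concentrate at 187 L/ha. Visual injury scored 0–100% versus untreated plants after 3 weeks; GR50/GR80 derived by probit analysis.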

Data set [2] deals with Echinochloa crus-galli (L.) P.BEAUV. (barnyardgrass). The data set is described as above. Type of data set: in vivo. The settings on record: ECHCG, probit analysis; for GR50: 50% growth reduction; for GR80: 80% growth reduction; for GR90: 90% growth reduction. An outline of the steps:
as §1

Data set [3] has as its system Brachiaria platyphylla (GRISEB.) NASH (broadleaf signalgrass). The data set is described as above. Type of data set: in vivo. The settings on record: BRAPP, probit analysis; for GR50: 50% growth reduction; for GR80: 80% growth reduction; for GR90: 90% growth reduction. An outline of the steps: as §1
Data set [4] has as its system Cyperus difformis L. (small-flower flatsedge). The description is as above. The format is in vivo. The settings on record: post-emergence, 504 h, read-out: Visual Injury (%) CYPDI. An outline of the steps: as §1
The test system of data set [5] is Solidago L. spec (Goldenrod). Nature of the data set: Postemergence herbicidal activity in pastures (Example 15). Type of data set: in vivo. The settings on record: pasture cropping systems, postemergence spray, 35 DAA. As to the method: (§2) Seeds of the desired test plant species were planted in Sun Gro Metro-Mix® 360 planting mixture, which typically has a pH of 6.0 to 6.8 and an organic matter content of about 30 percent, in plastic pots with a surface area of 139.7 cm^2. When required to ensure good germination and healthy plants, a fungicide treatment and/or other chemical or physical treatment was applied. The plants were grown with an approximate 14 h photoperiod which was maintained at about 24° C. during the day and 21° C. during the night. Nutrients and water were added on a regular basis and supplemental lighting was provided with overhead metal halide 1000-Watt lamps as necessary. The plants were employed for testing when they reached the four or six true leaf stage, depending on species.
(§3) Treatments consisted of esters of compounds 39 and G. Compound G is methyl 4-amino-3-chloro-6-(4-chloro-2-fluoro-3-methoxyphenyl)picolinate. A weighed amount, determined by the highest rate to be tested, of each test compound was placed in a 25 mL glass vial and was dissolved in 8 mL of a 97:3 v/v mixture of acetone and DMSO to obtain concentrated stock solutions. […] The concentrated stock solutions obtained were diluted with 16 mL of an aqueous mixture containing acetone, water, isopropyl alcohol, DMSO, Agri-dex crop oil concentrate, and Triton® X-77 surfactant in a 64.7:26.0:6.7:2.0:0.7:0.01 v/v ratio to obtain spray solutions containing the highest application rates. Additional application rates were obtained by serial dilution of 12 mL of the high rate solution into a solution containing 4 mL of a 97:3 v/v mixture of acetone and DMSO and 8 mL of an aqueous mixture containing acetone, water, isopropyl alcohol, DMSO, Agri-dex crop oil concentrate, and Triton® X-77 surfactant in a 48.5:39.0:10.0:1.5:1.0:0.02 v/v ratio to obtain ½×, ¼×, ⅛× and 1/16× rates of the high rate. Compound requirements are based upon a 12 mL application volume at a rate of 187 L/ha. Formulated compounds were applied to the plant material with an overhead Mandel track sprayer equipped with 8002E nozzles calibrated to deliver 187 L/ha over an application area of 0.503 m^2 at a spray height of 18 inches (43 cm) above average plant canopy height. Control plants were sprayed in the same manner with the blank.
(§4) The treated plants and control plants were placed in a greenhouse as described above and watered by sub-irrigation to prevent wash-off of the test compounds. After 35 d, the condition of the test plants as compared with that of the untreated plants was determined visually and scored on a scale of 0 to 100 percent where 0 corresponds to no injury and 100 corresponds to complete kill.

Data set [6] deals with Cirsium arvense (Thistle, Canada). Described as above. Type of data set: in vivo. The settings on record: pasture cropping systems, postemergence spray, 35 DAA. The procedure:
as §2, §3, §4

Like-named read-outs stand apart in the source and are kept apart here. A value given as a limit tells only on which side of the number the result lay.

Take `Nc1c(F)c(-c2ccc(C3CC3)cc2)nc(C(=O)OCc2ccccc2)c1Cl` [Compound 42, benzyl 4-amino-3-chloro-6-(4-cyclopropylphenyl)-5-fluoropicolinate]: the “Visual Injury (%) CYPIR” value in data set [1] stood at 100%.

In data set [2], `COc1c(Cl)ccc(-c2nc(C(=O)OCc3ccccc3)c(Cl)c(N)c2F)c1F` [Compound 1, benzyl 4-amino-3-chloro-6-(4-chloro-2-fluoro-3-methoxyphenyl)-5-fluoropicolinate] showed a GR50 of less than 4.38 g ae/ha, a GR80 of less than 4.38 g ae/ha and a GR90 of 6.1 g ae/ha. In data set [3], the GR50 was less than 4.38 g ae/ha, the GR80 came out at 9.9 g ae/ha and the GR90 is 26.0 g ae/ha. The pest or weed control at 8.75 g/ha in data set [4] stood at 100%.

Usually melting point stands for the temperature, or range, at which the solid turns liquid. Take `COc1c(Cl)ccc(-c2cc(N)c(Cl)c(C(=O)OCc3ccccc3)n2)c1F` [Compound 39]: the melting point was 90 to 91.5 °C. The “Visual Injury (%) SOOSS” value in data set [5] (70 g ae/ha) came out at 85%. Besides, the “Visual Injury (%) SOOSS” value in data set [5] (140 g ae/ha) stood at 100%. In data set [6] (17.5 g ae/ha), the “Visual Injury (%) CIRAR” value is 100%. Moreover, the “Visual Injury (%) CIRAR” value in data set [6] (35 g ae/ha) is reported as 95%.

In data set [2], `COC(=O)c1nc(-c2ccc(Cl)c(OC)c2F)c(F)c(N)c1Cl` [E, methyl 4-amino-3-chloro-6-(4-chloro-2-fluoro-3-methoxyphenyl)-5-fluoropicolinate, reference compound] had a GR50 of 3.7 g ae/ha, a GR80 of 17.1 g ae/ha and a GR90 of 38.1 g ae/ha. Besides, in data set [3], the GR50 is less than 4.38 g ae/ha, the GR80 stood at 22.7 g ae/ha and the GR90 was determined as 84.3 g ae/ha. Also, the pest or weed control at 8.75 g/ha in data set [4] (rice cropping systems, foliar-applied, 8.75 g ae/ha, 21 DAA, may represent multiple trials) stood at 89%.

Consider `COC(=O)c1nc(-c2ccc(C3CC3)cc2)c(F)c(N)c1Cl` [Compound B, methyl 4-amino-3-chloro-6-(4-cyclopropylphenyl)-5-fluoropicolinate], for which the melting point was in the range of 116 to 119 °C. The “Visual Injury (%) CYPIR” value in data set [1] is on record as 60%.

In the case of `COC(=O)c1nc(-c2ccc(Cl)c(OC)c2F)cc(N)c1Cl` [Compound G, methyl 4-amino-3-chloro-6-(4-chloro-2-fluoro-3-methoxyphenyl)picolinate, reference compound], the “Visual Injury (%) SOOSS” value is given as 30% in data set [5] (70 g ae/ha) and 50% in data set [5] (140 g ae/ha). In addition, the “Visual Injury (%) CIRAR” value in data set [6] (17.5 g ae/ha) is reported as 40%; in data set [6] (35 g ae/ha), 60%.
